From paper PMC10535219, “Discovery and Potential Utility of a Novel Non-Invasive Ocular Delivery Platform” (Pharmaceutics, 2023)
Like-named read-outs stand apart in the source and are kept apart here. One block for each compound: values may come before it.

Tests used:
[1] = Biodisposition of JV-DE1 eye drops in New Zealand rabbits (LC-MS/MS of plasma and ocular tissues); type: in vivo; conditions: rabbit; for Cmax / concentration at 0.5 h / concentration at 3 h / concentration at 6 h / concentration at 24 h: New Zealand; for Cmax: topical or ocular
Protocol: The in-life procedures and sample collections were performed at Joinn Laboratory Inc. (Suzhou, China). A single dose of 50 µL (120 µg) per eye of the 0.24% JV-DE1 eye drops was applied to both eyes of the animals at time 0 using a pipet. This dose was chosen based on the maximum amount deliverable as an eye drop. Blood samples were collected from all five study animals at 0 h pre-dosing. […] Plasma samples were collected before each euthanization.
Sample preparation and bioanalysis were performed at Medicilon Preclinical Research LLC (Shanghai, China). Solid ocular tissues were homogenized with 9- to 49-fold (1 g tissue in 9 mL to 49 mL, w/v) of cold homogenization buffer (50% methanol/H2O). Aliquots of plasma or aqueous humor, as well as the homogenized tissue samples, were mixed with 8-fold volumes of 200 ng/mL warfarin in a methanol solution. After vortexing and centrifuging, an aliquot of supernatants was transferred to a 96-well plate for LC-MS/MS analysis. JV-DE1 is a synthesized new chemical entity (NCE). The absence of the endogenous compound was verified by JeniVision with a battery of pre-clinical GLP and non-GLP studies, including analytical studies in monkey, dog, and rabbit tissues.
The liquid chromatography (LC) system comprised a Waters (Waters Corporation, Milford, CT, USA) Ultra Performance Liquid Chromatography (UPLC) equipped with an ACQUITY UPLC binary solvent manager, an ACQUITY UPLC sample manager, an ACQUTIY UPLC sample organizer, and an ACQUITY UPLC column heater HT. The mass spectrometric (MS) analysis was performed using a Triple Quad 6500+ (Applied Biosystems/MDS Sciex, Concord, ON, Canada) with an ESI ion source. The data acquisition and control system were created using Analyst 1.6.3 and 1.7.1 Software from Applied Biosystems/MDS Sciex. The LC/MS conditions for JV-DE1 are described in Supplementary Table S1a–c.

[2] = test system: photoreceptors; parameters: method as in PMID 23723389; conditions: rat retinal neuronal cultures; by activating RXRs; cited from earlier work
[3] = parameters: method as in PMID 35250585; conditions: once-daily intragastric administration; mice; cited from earlier work
[4] = test system: COX-2; parameters: method as in PMID 22765297, PMID 24005906; conditions: COX-2 signaling cascade; cited from earlier work
[5] = single eye drop 120 μg/eye OD, 0.5 h
[6] = single eye drop 120 μg/eye OD, 3 h
[7] = single eye drop 120 μg/eye OD, 6 h
[8] = single eye drop 120 μg/eye OD, 24 h

Cmax ([1]; anterior sclera, 120 ug, eye drop 120 µg/eye, read-out: Cmax in anterior sclera): 1790 ng/g
concentration at 0.5 h ([1]; anterior sclera, topical, 120 µg/eye, single eye drop 120 μg/eye OD, 0.5 h, read-out: Drug in OD Tissues, Anterior sclera): 1790 ng/g
concentration at 3 h ([1]; anterior sclera, topical, 120 µg/eye, single eye drop 120 μg/eye OD, 3 h, read-out: Drug in OD Tissues, Anterior sclera): 926 ng/g
concentration at 6 h ([1]; anterior sclera, topical, 120 µg/eye, single eye drop 120 μg/eye OD, 6 h, read-out: Drug in OD Tissues, Anterior sclera): 1480 ng/g
concentration at 24 h ([1]; anterior sclera, topical, 120 µg/eye, single eye drop 120 μg/eye OD, 24 h, read-out: Drug in OD Tissues, Anterior sclera): 93.2 ng/g
Cmax ([1]; bulbar conjunctiva, 120 ug, eye drop 120 µg/eye, read-out: Cmax in bulbar conjunctiva): ~16000 ng/g
Cmax ([1]; ciliary body/iris, 120 ug, eye drop 120 µg/eye, read-out: Cmax in ciliary body/iris): 305 ng/g
concentration at 0.5 h ([1]; ciliary body/iris, topical, 120 µg/eye, single eye drop 120 μg/eye OD, 0.5 h, read-out: Drug in OD Tissues, Ciliary body/iris): 105 ng/g
concentration at 3 h ([1]; ciliary body/iris, topical, 120 µg/eye, single eye drop 120 μg/eye OD, 3 h, read-out: Drug in OD Tissues, Ciliary body/iris): 305 ng/g
concentration at 6 h ([1]; ciliary body/iris, topical, 120 µg/eye, single eye drop 120 μg/eye OD, 6 h, read-out: Drug in OD Tissues, Ciliary body/iris): 231 ng/g
concentration at 24 h ([1]; ciliary body/iris, topical, 120 µg/eye, single eye drop 120 μg/eye OD, 24 h, read-out: Drug in OD Tissues, Ciliary body/iris): 28.9 ng/g
concentration at 0.5 h ([1]; conjunctiva, other: eye drop applied to the eye, single eye drop 120 μg/eye OD, 0.5 h, read-out: Drug in OD Tissues, Conjunctiva): 16500 ng/g
concentration at 3 h ([1]; conjunctiva, other: eye drop applied to the eye, single eye drop 120 μg/eye OD, 3 h, read-out: Drug in OD Tissues, Conjunctiva): 5180 ng/g
concentration at 6 h ([1]; conjunctiva, other: eye drop applied to the eye, single eye drop 120 μg/eye OD, 6 h, read-out: Drug in OD Tissues, Conjunctiva): 566 ng/g
concentration at 24 h ([1]; conjunctiva, other: eye drop applied to the eye, single eye drop 120 μg/eye OD, 24 h, read-out: Drug in OD Tissues, Conjunctiva): 994 ng/g
Cmax ([1]; cornea, 120 ug, eye drop 120 µg/eye, read-out: Cmax in cornea): ~12000 ng/g
concentration at 0.5 h ([1]; cornea, topical, 120 µg/eye, single eye drop 120 μg/eye OD, 0.5 h, read-out: Drug in OD Tissues, Cornea): 12100 ng/g
concentration at 3 h ([1]; cornea, topical, 120 µg/eye, single eye drop 120 μg/eye OD, 3 h, read-out: Drug in OD Tissues, Cornea): 5950 ng/g
concentration at 6 h ([1]; cornea, topical, 120 µg/eye, single eye drop 120 μg/eye OD, 6 h, read-out: Drug in OD Tissues, Cornea): 5130 ng/g
concentration at 24 h ([1]; cornea, topical, 120 µg/eye, single eye drop 120 μg/eye OD, 24 h, read-out: Drug in OD Tissues, Cornea): 542 ng/g
concentration at 0.5 h ([1]; plasma, other: eye drop applied to the eye, single eye drop 120 μg/eye OD, 0.5 h, read-out: Drug in plasma): 1 ng/mL
concentration at 3 h ([1]; plasma, other: eye drop applied to the eye, single eye drop 120 μg/eye OD, 3 h, read-out: Drug in plasma): 0.3 ng/mL
concentration at 6 h ([1]; plasma, other: eye drop applied to the eye, single eye drop 120 μg/eye OD, 6 h, read-out: Drug in plasma): 0.1 ng/mL
Cmax ([1]; posterior sclera, 120 ug, eye drop 120 µg/eye, read-out: Cmax in posterior sclera): 240 ng/g
concentration at 0.5 h ([1]; posterior sclera, topical, 120 µg/eye, single eye drop 120 μg/eye OD, 0.5 h, read-out: Drug in OD Tissues, Posterior sclera): 209 ng/g
concentration at 3 h ([1]; posterior sclera, topical, 120 µg/eye, single eye drop 120 μg/eye OD, 3 h, read-out: Drug in OD Tissues, Posterior sclera): 240 ng/g
concentration at 6 h ([1]; posterior sclera, topical, 120 µg/eye, single eye drop 120 μg/eye OD, 6 h, read-out: Drug in OD Tissues, Posterior sclera): 151 ng/g
concentration at 24 h ([1]; posterior sclera, topical, 120 µg/eye, single eye drop 120 μg/eye OD, 24 h, read-out: Drug in OD Tissues, Posterior sclera): 64.5 ng/g
Cmax ([1]; retina, 120 µg per eye, eye drop administration, read-out: retinal Cmax): 297 nM
Cmax ([1]; retina, 120 ug, eye drop 120 µg/eye, read-out: Cmax in retina): 92 ng/g
concentration at 0.5 h ([1]; retina, topical, 120 µg/eye, single eye drop 120 μg/eye OD, 0.5 h, read-out: Drug in OD Tissues, Retina): 92 ng/g
concentration at 3 h ([1]; retina, topical, 120 µg/eye, single eye drop 120 μg/eye OD, 3 h, read-out: Drug in OD Tissues, Retina): 49.1 ng/g
concentration at 6 h ([1]; retina, topical, 120 µg/eye, single eye drop 120 μg/eye OD, 6 h, read-out: Drug in OD Tissues, Retina): 58.9 ng/g
concentration at 24 h ([1]; retina, topical, 120 µg/eye, single eye drop 120 μg/eye OD, 24 h, read-out: Drug in OD Tissues, Retina): 6.8 ng/g
Cmax ([1]; vitreous humor, 120 ug, eye drop 120 µg/eye, read-out: Cmax in vitreous humor): 2.6 ng/mL
concentration at 0.5 h ([1]; vitreous humor, topical, 120 µg/eye, single eye drop 120 μg/eye OD, 0.5 h, read-out: Drug in vitreous humor): 2.6 ng/mL
concentration at 3 h ([1]; vitreous humor, topical, 120 µg/eye, single eye drop 120 μg/eye OD, 3 h, read-out: Drug in vitreous humor): 1.7 ng/mL
concentration at 6 h ([1]; vitreous humor, topical, 120 µg/eye, single eye drop 120 μg/eye OD, 6 h, read-out: Drug in vitreous humor): 1.2 ng/mL
concentration at 24 h ([1]; vitreous humor, topical, 120 µg/eye, single eye drop 120 μg/eye OD, 24 h, read-out: Drug in vitreous humor): 0.4 ng/mL
maximum ocular delivery efficiency (% administered dose), anterior sclera ([1]; eye drop 120 µg/eye): 0.2982%
maximum ocular delivery efficiency (% administered dose), ciliary body/iris ([1]; eye drop 120 µg/eye): 0.0174%
maximum ocular delivery efficiency (% administered dose), conjunctiva ([1]; eye drop 120 µg/eye): 1.3929%
maximum ocular delivery efficiency (% administered dose), cornea ([1]; eye drop 120 µg/eye): 0.8622%
maximum ocular delivery efficiency (% administered dose), retina ([1]; eye drop 120 µg/eye): 0.0047%
maximum ocular delivery efficiency (% administered dose), vitreous humor ([1]; eye drop 120 µg/eye): 0.0023%
drug concentration in the plasma ([1]; eye drop 120 µg/eye, throughout 0.5, 3 and 6 h post-dose): no more than 0.001 µg/mL
% Administered Dose, Anterior sclera [1, 5]: 0.2982%
% Administered Dose, Ciliary body/iris [1, 5]: 0.0084%
% Administered Dose, Conjunctiva [1, 5]: 1.3929%
% Administered Dose, Cornea [1, 5]: 0.8622%
% Administered Dose, Posterior sclera [1, 5]: 0.0153%
% Administered Dose, Retina [1, 5]: 0.0047%
% Administered Dose, Vitreous humor [1, 5]: 0.0023%
% Administered Dose, Anterior sclera [1, 6]: 0.1068%
% Administered Dose, Ciliary body/iris [1, 6]: 0.0174%
% Administered Dose, Conjunctiva [1, 6]: 0.4477%
% Administered Dose, Cornea [1, 6]: 0.4239%
% Administered Dose, Posterior sclera [1, 6]: 0.0323%
% Administered Dose, Retina [1, 6]: 0.0036%
% Administered Dose, Vitreous humor [1, 6]: 0.0012%
% Administered Dose, Anterior sclera [1, 7]: 0.2139%
% Administered Dose, Ciliary body/iris [1, 7]: 0.0137%
% Administered Dose, Conjunctiva [1, 7]: 0.1288%
% Administered Dose, Cornea [1, 7]: 0.3709%
% Administered Dose, Posterior sclera [1, 7]: 0.0197%
% Administered Dose, Retina [1, 7]: 0.0037%
% Administered Dose, Vitreous humor [1, 7]: 0.0007%
% Administered Dose, Anterior sclera [1, 8]: 0.0127%
% Administered Dose, Ciliary body/iris [1, 8]: 0.0021%
% Administered Dose, Conjunctiva [1, 8]: 0.1467%
% Administered Dose, Cornea [1, 8]: 0.0254%
% Administered Dose, Posterior sclera [1, 8]: 0.0088%
% Administered Dose, Retina [1, 8]: 0.0004%
% Administered Dose, Vitreous humor [1, 8]: 0.0004%
Drug in plasma ([1]; single eye drop 120 μg/eye OD, 24 h, LLOQ 0.0001 µg/mL): BLQ
Structure (SMILES): CC(C)Oc1ccc(Cc2ccc(NC3=NCCN3)cc2)cc1 [JV-DE1, 4,5-dihydro-N-[4-[[4-(1-methylethoxy)phenyl]methyl]phenyl]-1H-imadazol-2-amine]

Structure (SMILES): CC/C=C\C/C=C\C/C=C\C/C=C\C/C=C\C/C=C\CCC(=O)O [JV-MD2, cis-4,7,10,13,16,19-docosahexaenoic acid]
protective effect on photoreceptors [2]: induced a protective effect
laser-induced CNV formation [3]: effectively inhibited laser-induced CNV formation
IC50 [4]: 18 µM
